System: histamine H2 -receptors
Assay: Heidenhain pouch dog: inhibition of histamine-stimulated acid secretion
Format: in vivo
Settings: intravenous administration; dose levels adjusted to produce similar peak responses

Structure (SMILES): Nc1c(NCCCOc2cc(CN3CCCCC3)ccn2)c(=O)c1=O [Example 1, 1-[3-[4-(Piperidinomethyl)pyrid-2-yloxy]prop-1-ylamino]-2-aminocyclobut-1-ene-3,4-dione]
- duration of action relative to cimetidine: significant increase in duration of action

Source: patent US4466970A, “Dioxocyclobutene compounds” (Smith Kline & French Laboratories Limited, priority 1982, dated 1984)
